# Laboratory results reported in patent publication US20040102454A1, “Phenylahistin and the phenylahistin analogs, a new class of anti-tumor compounds” (priority 1998, published 2004).
# Counter-ions that a name gives are not always drawn. Like-named read-outs stand apart in the source and are kept apart here.
# How the values were obtained:
# [1] = system: T. mentagrophytes isolate #2; test: Antifungal susceptibility testing, broth dilution (NCCLS M38-A); type: cell-based, Trichophyton mentagrophytes; conditions: 80% reduction in turbidity
# Method: (§1) Antifungal susceptibility testing was accomplished according to the methods outlined in the National Committee for Clinical Laboratory Standards, M38-A “Reference Method for Broth Dilution Antifungal Susceptibility Testing of Conidium-Forming Filamentous Fungi; Approved Standard.” This includes testing in RPMI-1640 with glutamine and without bicarbonate, an inoculum size of 0.4-5×10^4, and incubation at 30 or 35° C. for 48 hours. […] Drug concentrations were 0.03-16 μg/ml for the investigational compounds, 0.015-8 μg/ml for itraconazole and griseofulvin.
# (§2) The minimum lethal concentration (MLC) was determined by plating […] from the MIC concentration and each concentration above the MIC. […] When a MIC was obtained, a minimum fungicidal concentration (MFC) was determined to assess the fungistatic/fungicidal nature of the compound. […] The compound is scored as fungistatic if the cells are able to resume growth and fungicidal if no regrowth is possible because the compound had killed the organisms.
# [2] = system: T. mentagrophytes isolate #1; test: as above; type: cell-based, Trichophyton mentagrophytes
# Method: as §1, §2
# E. floccosum isolate #1 = test: as above; type: cell-based, Epidermophyton floccosum; conditions: 80% reduction in turbidity
# Method: as §1, §2
# E. floccosum isolate #2 = test: as above; type: cell-based, Epidermophyton floccosum
# Method: as §1, §2
# T. rubrum isolate #1 = test: as above; type: cell-based, Trichophyton rubrum; conditions: T. rubrum isolate #1
# Method: as §1, §2
# T. rubrum isolate #2 = test: as above; type: cell-based, Trichophyton rubrum
# Method: as §1, §2
# C. glabrata = test: as above; type: cell-based, Candida glabrata
# Method: as §1, §2
# C. albicans 10231 = test: as above; type: cell-based, Candida albicans
# Method: as §1, §2
# C. albicans 90028 = test: as above; type: cell-based, Candida albicans
# Method: as §1, §2
# P388 cells = test: P388 proliferation, Alamar Blue assay; type: cell-based, murine
# Method: For this example, the Alamar Blue™ assay was performed as follows. Exponentially growing P388 cells were seeded into 96-well tissue culture plates (5×10^3 cells/100 μl/well) and cultured in RPMI 1640 medium supplemented with 10% fetal bovine serum for 16 h. Compounds (DMSO solution) were then added to each well at various concentrations, and the cells were cultured for an additional 48 h. Living cells were counted using Alamar Blue™ (BioSource International, Camarillo, Calif.), according to the method of Ahmed, S. A. et al., J. Immunol. Methods, 170, 211 (1994).
# [3] = system: Microtubule protein from bovine brain; test: Microtubule protein polymerization assay (turbidity); type: biochemical
# Method: Microtubule protein was prepared from bovine brain tissue by two cycles of assembly and disassembly according to the method of Tiwari, S. C. et al. Anal. Biochem, (1993), 215, 96-103. Tubulin was purified from microtubule protein by phosphocellulose chromatography see Algaier, J. et al. Biochim. Biophys. Acta, (1988), 954, 235-43, and tubulin purity was evaluated by polyacrylamide gel electrophoresis, as in Laemmli, U.K., Nature, (1970), […], 680-85. […] Protein concentrations were determined using the Coomassie® Protein Assay Reagent from Pierce (Rockford, Ill.).
# Polymerization of microtubule protein was monitored by an increase in turbidity at 37° C. in microtubule assembly buffer containing 100 mM MES, 0.5 mM MgCl2, 1 mM EGTA and 1 mM GTP. See Johnson, K. A. et al., J. Mol. Biol., (1977), 117, 1-31. Polymerization of purified tubulin was measured using the same method except the microtubule assembly buffer contained 4 M glycerol. See Lee, J. C. et al., Biochemistry, (1975), 14, 5183-87. Microtubule protein and tubulin polymerization was initiated by a temperature shift from 0° C. to 37° C. and turbidity was measured on a DU-20 thermocontrolled spectrophotometer from Beckman (Fullerton, Calif.) at 360 nm. Drugs were dissolved in dimethyl sulfoxide (DMSO), which was used in all experiments at a final concentration of 2% (v/v).
# For this example, the microtubule protein polymerization assay was performed as follows. Microtubule protein was prepared from bovine brain tissue by two cycles of assembly and disassembly. Polymerization of microtubule protein was monitored by an increase in turbidity at 37° C. in microtubule assembly buffer containing 100 mM MES, 0.5 mM MgCl2, 1 mM EGTA and 1 mM GTP. The polymerization of microtubule protein was initiated by a temperature shift from 0° C. to 37° C. Turbidity was measured on a thermo-controlled spectrophotometer (Beckman DU-20, Fullerton, Calif.) at 360 nm. Compounds were dissolved in DMSO, which was used in all experiments at a final concentration of 2% (v/v).
# [4] = system: MES-SA DX (Taxol Resistant) human uterine sarcoma tumor cell line; test: Drug resistant cell line pair, cytotoxicity; type: cell-based
# Excerpt: MES-SA (Taxol Sensitive) and MES-SA DX (Taxol Resistant). This cell line expresses elevated mdr-1 mRNA and P-glycoprotein (an extrusion pump mechanism). Pretreatment with cyclosporin-A (CsA) blocks P-glycoprotein and reinstates activity in the resistant cell line for those compounds for which the resistance is due to elevated P-glycoprotein.
# HT-29 human colon tumor = test: HT-29 Human Colon Tumor Xenograft Model; type: in vivo, nude mice; conditions: CPT-11 100 ip qwx3 alone; study 2139
# Method: Animals used were (exceptions are indicated for individual studies): female nude mice (nu/nu) between 5 and 6 weeks of age (˜20 g, Harlan); group size was 9-10 mice per group unless otherwise indicated. The selected novel compound was administered as monotherapy via the intraperitoneal (i.p.) route at the doses indicated for the individual study; for the combination studies the selected reference chemotherapy agents were injected 15-30 min prior to the compound. Vehicles used in these studies were: 12.5% DMSO, 5% Cremaphor and 82.5% peanut oil for the selected novel compounds; (1:3) Polysorbate 80:13% ethanol for taxotere; […] Saline dilutions are used to achieve the injection concentrations used for the reference compounds. Animals were implanted subcutaneously (s.c.) by trocar with fragments of HT-29 tumors harvested from s.c. growing tumors in nude mice hosts. […] CPT-11 was administered intraperitoneally on days 1, 8 and 15 (qw×3).
# [5] = system: microtubules in A549 cells; test: Immunofluorescence staining of microtubules; type: cell-based, human; conditions: 6 hours incubation
# Method: Immunocytochemical staining was performed using the method described by Yahara, I. et al., Cell (1978) 15, 251-259. A549 cells were cultured on glass coverslips and incubated with the test drug for 6 hours. The cells were then fixed with 3.7% formaldehyde for 30 min, permeabilized with 0.2% Triton X-100 for 5 min, and incubated with a mouse monoclonal antibody against α-tubulin (Calbiochem®, Oncogene Research Products, Cambridge, Mass.), followed by incubation with fluorescein isothiocyanate-conjugated goat anti-mouse IgG from Cosmo Bio Co., (Tokyo, Japan), and the cells were examined under an immunofluorescent microscope.
# [6] = means (±SEM) of three experiments (Table 9), read-out: IC50 P388 proliferation
# [7] = microtubule protein 1.5 mg/mL (Table 9), read-out: IC50 Microtubule Protein polymerization
# [8] = Alamar Blue assay (Table 4), read-out: IC50 for P388 Proliferation
# [9] = microtubule protein 1.5 mg/ml (Table 4), read-out: IC50 for Microtubule Protein Polymerization
# [10] = Mus musculus, P388, means (±SEM) of three experiments (Table 9), read-out: IC50 P388 proliferation
compound,measurement,setting,value
CC(C)(C)c1[nH]cnc1/C=C1\NC(=O)[C@H](Cc2ccccc2)NC1=O [NPI2460],MIC,[1],>16 µg/mL
same,MFC,[2],>16 µg/mL
same,MIC,[2]; 80% reduction in turbidity,4 µg/mL
same,MIC,E. floccosum isolate #1,>16 µg/mL
same,MICs and MFCs,E. floccosum isolate #2,>16 µg/mL
same,MFC,T. rubrum isolate #1,0.125 µg/mL
same,MIC,T. rubrum isolate #1; 80% reduction in turbidity,<0.03 µg/mL
same,MFC,T. rubrum isolate #2,<0.03 µg/mL
same,MIC,T. rubrum isolate #2; 80% reduction in turbidity,<0.03 µg/mL
CCCCNC(=O)n1c(NC(=O)OC)nc2ccccc21 [benomyl],MIC,"C. glabrata; Nakaseomyces glabratus, C. glabrata, 80% reduction in turbidity, read-out: MIC",64 µg/mL
same,MFC,"C. glabrata; Nakaseomyces glabratus, C. glabrata, read-out: MFC",> 512 µg/mL
same,MIC,"C. albicans 10231; Candida albicans, C. albicans 10231, 80% reduction in turbidity, read-out: MIC",64 µg/mL
same,MFC,"C. albicans 10231; Candida albicans, C. albicans 10231, read-out: MFC",> 512 µg/mL
same,MIC,"C. albicans 90028; Candida albicans, C. albicans 90028, 80% reduction in turbidity, read-out: MIC",64 µg/mL
same,MFC,"C. albicans 90028; Candida albicans, C. albicans 90028, read-out: MFC",> 512 µg/mL
"Cc1[nH]cnc1C=C1NC(=O)[C@H](Cc2ccccc2)NC1=O [Compound 20, Cyclo-[(5-methyl)dehydrohistidinyl-L-phenylalanine]]",IC50,P388 cells; [6],15 µM
same,"inhibition percentage at 200 μM, microtubule protein polymerization",[3],9%
same,IC50,[3]; [7],> 200 µM
"(−)-Cyclo-[5-(1,1-dimethylpropyl)histidinyl-L-phenylalanine] [Compound 5]",IC50,P388 cells; [8],> 200 µM
same,IC50,P388 cells; [6],> 200 µM
same,IC50,[3]; [7],> 200 µM
same,IC50,[3]; [9],> 200 µM
"COc1cccc2c1C(=O)c1c(O)c3c(c(O)c1C2=O)C[C@@](O)(C(=O)CO)C[C@@H]3O[C@H]1C[C@H](N)[C@H](O)[C@H](C)O1 [doxorubicin, reference compound]",reduced susceptibility of the MES-SA DX cell line,[4],34 fold
"(+)-Cyclo-[5-(1,1-dimethylpropyl)dehydrohistidinyl-L-phenylalanine] [Compound 4]",IC50,P388 cells; [8],19 µM
same,IC50,P388 cells; [6],19 µM
same,"inhibition percentage at 200 μM, microtubule protein polymerization",[3],12%
same,IC50,[3]; [7],> 200 µM
same,IC50,[3]; [9],> 200 µM
"O=C1CNC(=O)C(Cc2ccccc2)N1 [Compound 7, Cyclo-[glycinyl-L-phenylalanine]]",IC50,"P388 cells; Mus musculus, P388, Alamar Blue assay (Table 4), read-out: IC50 for P388 Proliferation",> 200 µM
same,IC50,[3]; [9],> 200 µM
C[C@@H]1[C@H](O)[C@@H](C)/C=C/C=C/C=C/C=C/C=C/C=C/C=C/[C@H](O[C@@H]2O[C@H](C)[C@@H](O)[C@H](N)[C@@H]2O)C[C@@H]2O[C@](O)(C[C@@H](O)C[C@@H](O)[C@H](O)CC[C@@H](O)C[C@@H](O)CC(=O)O[C@H]1C)C[C@H](O)[C@H]2C(=O)O [amphotericin B],MFC,C. glabrata; C. glabrata,1 µg/mL
same,MIC,"C. glabrata; C. glabrata, 80% reduction in turbidity",1 µg/mL
same,MFC,C. albicans 10231; C. albicans 10231,0.5 µg/mL
same,MIC,"C. albicans 10231; C. albicans 10231, 80% reduction in turbidity",0.5 µg/mL
same,MFC,C. albicans 90028; C. albicans 90028,0.5 µg/mL
same,MIC,"C. albicans 90028; C. albicans 90028, 80% reduction in turbidity",0.5 µg/mL
"(−)-Cyclo-[5-(1,1-dimethylpropyl)dehydrohistidinyl-L-phenylalanine] [Compound 3]",IC50,P388 cells; [8],0.23 µM
same,IC50,P388 cells; [6],0.23 µM
same,IC50,[3]; [7],30 µM
same,IC50,[3]; [9],30 µM
"CCc1c2c(nc3ccc(OC(=O)N4CCC(N5CCCCC5)CC4)cc13)-c1cc3c(c(=O)n1C2)COC(=O)[C@]3(O)CC [CPT-11, irinotecan hydrochloride, reference compound]",Chemotherapeutic Agent Result TGI %,HT-29 human colon tumor,32.7%
"O=C1NC(Cc2ccccc2)C(=O)NC1=Cc1c[nH]cn1 [Compound 19, Cyclo-[dehydrohistidinyl-L-phenylalanine]]",IC50,P388 cells; [10],> 200 µM
same,"inhibition percentage at 200 μM, microtubule protein polymerization",[3],11%
same,IC50,[3]; [7],> 200 µM
COc1cc2c(c(OC)c1OC)-c1ccc(OC)c(=O)cc1[C@@H](NC(C)=O)CC2 [colchicine],microtubule structure (anti α-tubulin staining),[5],staining profile similar to that of (−)-PLH-treated cells
same,MIC,C. glabrata; Nakaseomyces glabratus,> 128 µg/mL
same,MIC,"C. albicans 10231; Candida albicans, 10231",> 128 µg/mL
same,MIC,"C. albicans 90028; Candida albicans, 90028",> 128 µg/mL
"C=CC(C)(C)c1c(/C=C2\NC(=O)[C@H](Cc3ccccc3)NC2=O)ncn1C [Compound 14, (−)-Cyclo-[(N^im-methyl-5-(1,-dimethyl-2-propenyl))dehydrohistidinyl-L-phenylalanine]]",IC50,P388 cells; [10],0.95 µM
same,times less active than (−)-phenylahistin,[3],about 5 times
same,IC50,[3]; [7],100 µM
"COc1cc([C@@H]2c3cc4c(cc3[C@@H](O[C@@H]3O[C@@H]5CO[C@@H](C)O[C@H]5[C@H](O)[C@H]3O)[C@H]3COC(=O)[C@H]23)OCO4)cc(OC)c1O [etoposide, reference compound]",reduced susceptibility of the MES-SA DX cell line,[4],60 fold
"(+)-Cyclo-[5-(1,1-dimethylpropyl)histidinyl-L-phenylalanine] [Compound 6]",IC50,P388 cells; [8],> 200 µM
same,IC50,P388 cells; [6],> 200 µM
same,IC50,[3]; [7],> 200 µM
same,IC50,[3]; [9],> 200 µM
"O=C1N[C@@H](Cc2cnc[nH]2)C(=O)N[C@H]1Cc1ccccc1 [Cyclo-His-Phe, reference compound]",IC50,P388 cells; [8],> 200 µM
same,IC50,P388 cells; [6],> 200 µM
same,IC50,[3]; [7],> 200 µM
same,IC50,[3]; [9],> 200 µM
"C=CC(C)(C)c1c(C=C2C(=O)N(C)[C@@H](Cc3ccccc3)C(=O)N2C)ncn1C [Compound 15, (−)-Cyclo-N, N′-dimethyl-[(N^im-methyl-5-(1,1-dimethyl-2-propenyl))dehydro-histidinyl-L-phenylalanine]]",IC50,P388 cells; [6],160 µM
same,IC50,[3]; [7],> 200 µM
